Series [1] relates to tubulin. The series is described as follows: Immunoblotting analysis of polymerized/depolymerized tubulin. The class given is cell-based, human. As to conditions: Hela cells, 6 h. As to the method:
After being treated with diluent (0.2% DMSO), tested compound, CA-4 or PTX for 6 h, Hela cells were lysed with microtubulestabilizing buffer, containing 100 mM PIPES, pH 6.8, 1 mM MgCl2, 2 mM EGTA, 0.5% NP-40, 2 M glycerol, 5 μM PTX and protease inhibitors cocktail (Roche), and the lysate was centrifuged at 15,000 rpm for 15 min. Supernatant containing depolymerized tubulin was carefully collected, whereas pellet (polymerized tubulin) was further dissolved in SDS-lysis buffer (Beyotime, China). Equal amounts of supernatant and dissolved pellet were subjected to immunoblotting analysis as described above using a tubulin antibody (Proteintech).
Background: In western blotting, separated proteins are transferred to a membrane and probed.

For series [2], the system named is tubulin. The series is described as follows: Immunofluorescent analysis of tubulin morphology. The class given is cell-based, human. As to conditions: SKOV-3 cells, 24 h. As to the method: After treatment with diluent (0.2% DMSO) or tested compounds at indicated concentrations for 24 h, SKOV-3 cells were fixed with methanol, permeabilized with 0.1% Triton X-100 in PBS and blocked by goat serum. Then the cells were incubated with a-tubulin antibody at 4° C. overnight, followed by incubation with Alexa 488 labeled secondary antibody (Jackson ImmunoResearch) at RT for 1 h. After being stained with DAPI, cells were examined and photographed with a Leica SP5 co-focal fluorescence microscope.

The test system of a further series is KM mice. The series is described as follows: Acute toxicity assay. The class given is in vivo. The protocol:
KM mice were housed individually in a specific pathogen free facility. Groups of mice (n=10 per group, half male and half female) were injected intraperitoneally once with various dosages of 69 (95, 70, 50, 35, 25 mg/kg), 70 (500, 425, 350, 275, 200 mg/kg), 97 (275, 200, 150, 125 and 100 mg/kg) or vehicle (8.3% cremohorp EL and 8.3% alcohol in PBS) as negative control, respectively. 69, 70 and 97 was dissolved in cremeohore EL and alcohol mixture (1:1, v/v) and further diluted with PBS (1:5, v/v). The death of mice were monitored daily and recorded up to 14 days after injection.

Series [3] has as its system Bax, p53 and cleaved-PARP. The series is described as follows: Expression level of apoptosis associated proteins. It is filed as cell-based, human. As to conditions: HeLa cells, Western blot and qPCR. As to the method:
A. Western blotting: After being treated with candidate compound, cells were harvested and lysed. Then, the lysate was isolated by ultracentrifuge and quantified by BCA assay according to the protocol. After being denatured, equivalent protein of each sample was separated by SDS-PAGE gel and wet-transferred onto […] nitrocellulose membrane. After being blocked by PBS containing 5% skim milk, the membrane was incubated with primary antibody at 4° C. overnight and secondary antibody at room temperature for 2 h and then visualized by enhanced chemiluminescence kit (Thermo Fisher, USA), sequentially.
(§1) B. Quantitative PCR assay: HeLa cells were treated with 69, 70 or 97. The expression level of mRNA of target proteins was tested with qPCR kit (Takara).

In a further series the test system is A2780 cells. In words: Xenografts tumor growth assay in nude mice. As to conditions: A2780 xenograft. It is filed as in vivo, Balb/c nude mice. As to the method: 6 weeks old female Balb/c nude mice were purchased from Shanghai Slac Laboratory Animal Co. Ltd. (Shanghai, China). 2*10^6 A2780 cells suspended in 0.2 mL PBS per mouse was injected subcutaneously into the nude mice. […] Administration of agents or vehicle, or agents and measurement of tumor volumes with a digital caliper was done once every 2 days. Tumor volumes were calculated as volume=shortest diameter (W)^2*longest diameter (L)*0.52. When the average tumor volumes of vehicle treated group reached 2000 mm^3 in diameter, the mice were sacrificed and the tumors were isolated and weighed. Visceral organs of the mice as well as solid tumors were further analyzed by H&E staining.

The test system of series [4] is p-histone H3, cyclin B1 and BuBR1. In words: Cell cycle associated proteins assay. The settings on record: HeLa cells, 24 h, Western blot and qPCR. The class given is cell-based, human. The protocol:
A. HeLa cells were treated with 69, 70, 97 or DMSO for 24 h. After being harvested, the cells were lysed, and the concentrations of total protein were determined by BCA protein assay kit (Beyotime, China). […] The membrane was blocked with 5% BSA in TBST for 1.5 h, then incubated overnight with specific primary antibodies (Proteintech) at 4° C. After being washed three times by TBST, the membrane was incubated with specific secondary antibodies (Abnova, Taipei, China) at room temperature for 2 h. Finally, chemiluminescent reagents (Millipore) were employed to detect the protein bands.
as §1

Another series relates to MDA-MB-231 cells. In words: Colony formation assay. As to conditions: 48 h treatment, 7-10 days growth. It is filed as cell-based, human. The protocol: 1000 MDA-MB-231 cells per well were seeded into 6-well plate at a single cell density and were cultured at 37° C. for 48 h. After being treated with indicated concentrations of 69, 70 and 97, CA-4 as positive control, or diluent (0.2% DMSO) as negative control for 48 h, the agents containing medium was replaced by fresh medium to allow cell growth for additional 7-10 days. Then the cells were fixed with methanol and stained with gentian violet for 30 min. The number of colonies which consisted of more than 50 cells were counted. The results were indicated as mean values from three independent determinations.

A further series relates to cellular apoptosis. The series is described as follows: Cell apoptosis analysis (Annexin V/PI). It is filed as cell-based. As to conditions: 48 h, Annexin-V/PI flow cytometry. The protocol:
Cell apoptosis was detected using FITC Annexin V Apoptosis Detection Kit (BD Biosciences) according to manufacturer's instructions. Briefly, cells were incubated with indicated concentrations of 69, 70 and 97, CA-4 as positive control or diluent (0.2% DMSO) as negative control for 48 h. Then the cells were harvested, washed twice with PBS, and re-suspended in binding buffer. After being stained with Annexin-V and PI for 15 min in the dark place, cells were subjected to flow cytometry (Cytomics FC 500 MPL, Beckman Coulter) analysis. The results were indicated as mean values from three independent determinations.

Entries after “also recorded” stand apart in the source; their conditions may differ.

Take `C=C1C(=O)N(c2cc(OC)c(OC)c(OC)c2)[C@H]1c1ccc(OC)c(O)c1` [Compound 1, (S)-4-(3-hydroxy-4-methoxyphenyl)-3-methylene-1-(3,4,5-trimethoxyphenyl)azetidin-2-one]: in the series on tubulin [1], the “polymerized tubulin (immunoblotting)” value is given as “significantly inhibit tubulin aggregation”. Also, the “tubulin assembly (immunofluorescence)” value in the series on tubulin [2] is listed as “significantly inhibit tubulin aggregation”.
In the case of `COc1ccc([C@H]2[C@H](CO)C(=O)N2c2cc(OC)c(OC)c(OC)c2)cc1O` [Compound 69, (3R,4R)-4-(3-hydroxy-4-methoxyphenyl)-3-(hydroxymethyl)-1-(3,4,5-trimethoxyphenyl)azetidin-2-one], in the series on KM mice (25 mg/kg i.p. once), the “No. of dead mice 5-14 days” value turned out to be 0, the “No. of dead mice 1 day” value worked out at 0, the “No. of dead mice 2 days” value was determined as 0 and the “No. of dead mice 3 days” value came to 0. In the series with KM mice (25 mg/kg i.p. once), the “No. of dead mice 4 days” value was found to be 0, the “No. of dead mice Total death” value is on record as 0 and the “Survival (%) on day 14” value is 100%. Also, in the series on KM mice (35 mg/kg i.p. once), the “No. of dead mice 5-14 days” value came out at 0, the “No. of dead mice 1 day” value stood at 0, the “No. of dead mice 2 days” value is 0 and the “No. of dead mice 3 days” value amounted to 1. Besides, in the series with KM mice (35 mg/kg i.p. once), the “No. of dead mice 4 days” value came out at 0, the “No. of dead mice Total death” value was found to be 1 and the “Survival (%) on day 14” value is reported as 90%. Besides, in the series with KM mice (50 mg/kg i.p. once), the “No. of dead mice 5-14 days” value is 0, the “No. of dead mice 1 day” value came out at 0, the “No. of dead mice 2 days” value worked out at 0 and the “No. of dead mice 3 days” value was found to be 1. Further, in the series on KM mice (50 mg/kg i.p. once), the “No. of dead mice 4 days” value came out at 0, the “No. of dead mice Total death” value turned out to be 1 and the “Survival (%) on day 14” value came to 90%. In the series on KM mice (70 mg/kg i.p. once), the “No. of dead mice 5-14 days” value came to 1, the “No. of dead mice 1 day” value is 0, the “No. of dead mice 2 days” value was 0 and the “No. of dead mice 3 days” value came out at 4. Further, in the series on KM mice (70 mg/kg i.p. once), the “No. of dead mice 4 days” value is on record as 2, the “No. of dead mice Total death” value turned out to be 7 and the “Survival (%) on day 14” value worked out at 30%. In addition, in the series on KM mice (95 mg/kg i.p. once), the “No. of dead mice 5-14 days” value is on record as 1, the “No. of dead mice 1 day” value was 0, the “No. of dead mice 2 days” value was found to be 0 and the “No. of dead mice 3 days” value is given as 6. In addition, in the series on KM mice (95 mg/kg i.p. once), the “No. of dead mice 4 days” value is recorded as 1, the “No. of dead mice Total death” value is 8 and the “Survival (%) on day 14” value is 20%. Further, the “expression of Bax, p53 and cleaved-PARP” value in series [3] is “significantly promote the expression of the proapoptotic protein Bax, the tumor suppressor gene p53, and the cleaved DNA repair enzyme; also recorded: significantly induce the expression of Bax, p53 and cleaved-PARP”. Moreover, the “polymerized tubulin (immunoblotting)” value with tubulin [1] is reported as “significantly inhibit tubulin aggregation; also recorded: dramatically reduction of polymerized tubulin”. The “tumor growth in vivo” value in the series on A2780 cells (i.p. once every 2 days, 69 7.5 mg/kg, 70 12.5 mg/kg, 97 4 or 8 mg/kg) is given as “significantly inhibit tumor growth in vivo; also recorded: anti-tumor activities in vivo”. In addition, in the series on A2780 cells (treated groups), the “H&E staining of liver, kidney and spleen” value is “no abnormal areas are observed in tissue staining of liver, kidney and spleen; also recorded: no detectable abnormalities were observed in liver, kidney and spleen”; the “H&E staining of tumor sections (necrosis)” value was “cause tumor tissue to produce necrotic areas; also recorded: extensive areas of necrosis or cell death”. The “tubulin assembly (immunofluorescence)” value in the series with tubulin [2] was “significantly inhibit tubulin aggregation; also recorded: strongly inhibit tubulin assembly in cancer cells”. Further, the “expression of p-histone H3, cyclin B1 and BuBR1” value in series [4] is “significantly promote the expression of phosphorylated histone H3, cyclin B1, and mitotic checkpoint protein BuBR1”. Moreover, the colony formation result in the series on MDA-MB-231 cells is given as “significantly inhibit the formation of colonies of cancer cells”. In addition, the cellular apoptosis entry in the series with cellular apoptosis was “significantly promote apoptosis; also recorded: significantly induce cellular apoptosis”.

The values above are taken from patent publication US20220251039A1, “Diaryl-B-Lactam Compound and Preparation Method and Pharmaceutical Use Thereof” (Fudan University, priority 2016, published 2022).
